Reference: US8686028B2, “Substituted benzfurochromenes and related compounds for the prevention and treatment of bone related disorders” (Council of Scientific & Industrial Research, priority 2008, dated 2014)
One block for each compound: values may come before it.

Tests used:
Calvarial osteoblasts = experiment: Alkaline phosphatase (ALP) activity for osteoblast differentiation, calvarial osteoblasts; type: cell-based, rat; conditions: calvarial osteoblasts, 48 h, 10^−12M to 10^−6M
Experimental: Neonatal rat calvarial cell cultures are prepared as described previously (Endocrinology 145:3451) using slight modification. Briefly, for primary osteoblast cell cultures, frontal and parietal bones from Sprague-Dawley rat neonates (1-3 day old) are digested in 0.1% collagenase/0.1% dispase in α-MEM to obtain 5 sequential digests. The second through fifth digests are combined and grown to confluence at 37° C. and 5% CO2 in air in α-MEM, supplemented with 10% fetal bovine serum (FBS), 2 mM glutamine, 100 U/ml penicillin-streptomycin, Non-essential amino acid solution and sodium pyruvate.
70 to 80% confluent Calvarial osteoblasts were treated with μM S006-1709 for 48 h in the presence of ascorbate and glycerophosphate. At the end of incubation period, total ALP activity was measured with a method using p-nitrophenylphosphate (PNPP) as substrate. The reaction mixture contained diethanolamine buffer (1 mol/L, pH 9.8), 0.5 mmol/L MgCl2.6H2O, and 10 mmol/L PNPP. ALP activity was measured by taking OD of the amount of colored product formed by the dephosphorylation of PNPP at 405 nm. […] In addition, the effect of S006-1709 on mineralization of calvarial osteoblasts was studied.
We then studied its effect in osteoblast differentiation in both calvarial and bone marrow osteoblasts. Confluent calvarial osteoblasts (70 to 80%) were treated with S006-1710 for 48 h in the presence of ascorbate and glycerophosphate at concentrations ranging from 10^−16M to 10^−6M. At the end of incubation period, total ALP activity was measured with the same method used previously using p-nitrophenylphosphate (PNPP) as substrate.
70 to 80% confluent Calvarial osteoblasts were treated with S007-1351 for 48 h in the presence of ascorbate and glycerophosphate. At the end of incubation period, total ALP activity was measured with a method using p-nitrophenylphosphate (PNPP) as substrate. The reaction mixture contained diethanolamine buffer (1 mol/L, pH 9.8), 0.5 mmol/L MgCl2.6H2O, and 10 mmol/L PNPP. ALP activity was measured by taking OD of the amount of colored product formed by the dephosphorylation of PNPP at 405 nm.
70 to 80% confluent calvarial osteoblasts were treated with S007-1352 for 48 h in the presence of ascorbate and glycerophosphate at concentrations ranging from 10^−12M to 10^−6 M. At the end of incubation period, total ALP activity was measured with the same method used previously using p-nitrophenylphosphate (PNPP) as substrate.

3T3-L1 cells = experiment: Anti-adipogenic effect (Oil Red O) in 3T3-L1 cells; type: cell-based, mouse
Experimental: The best characterized model of adipogenesis in vitro is the 3T3-L1 cell line, a substrain of Swiss 3T3 mouse cell line. 3T3-L1 cells propagated under normal conditions have a fibroblastic phenotype. However, when treated with a combination of dexamethasone, isobutylmethylxanthine (IBMX or MIX) and insulin, 3T3-L1 cells adopt a rounded phenotype and within 5 days begin to accumulate lipids intracellularly in the form of lipid droplets.
3T3-L1 cells were plated in 48-well plates 40,000 cells/well. The cells were incubated in DMEM containing fetal calf serum for 2 days until the cells become confluent. The cells were then incubated with Adipogenesis initiation media which contains DMEM with 10% FCS, IBMX and dexamethasone for 48 hrs at 37° C., 5% CO2. After two days the media was replaced with Adipogenesis Progression media which contains DMEM/10% FCS and insulin for 48 hrs at 37° C., 5% CO2, Media was again changed gently to Adipogenesis maintenance media for 48 hrs at 37° C., 5% CO2. At the end of eight days of experiment the cells were fixed and then stained with Oil Red O which stains lipid droplets. The dye was extracted and extracted dye was transferred to a 96-well plate and absorbance of extracted Oil Red O was measured in a plate reader at 490 nm.
Compounds S006-1709, S007-1351-53, S007-1495 and S007-1500 were tested in vitro in 3T3L1 cell line at two concentrations 10^−10 M and 10^−12M. FIG. 8A depicts the adipocytes formed at the end of the 8 day experiment. The fixed cells were stained with Oil Red O. The dye was then extracted and quantified.

[1] = system: ovariectomized immature female rats; experiment: Estrogenicity, uterine fresh weight in ovariectomized immature female rats; type: in vivo, rat; conditions: 10 mg/Kg oral
Experimental: 21 day old immature female rats (25-30 grams) were ovariectomized and given 7 days post-operative rest. Thereafter they were treated orally with the test agent (10 mg/Kg body weight) or with vehicle or Ethynyl estradiol, the reference standard for three consecutive days. For anti-estrogenicity, other than the test chemical, ethynyl estradiol (0.01 mg/kg) was given at 15 minutes interval before the test chemical. Autopsy was done 24 h after last treatment and uterine fresh weight was taken.

[2] = system: Immature 21 d old female SD rat; experiment: In vivo efficacy, BMD in immature female SD rats; conditions: for BMD % increase versus vehicle control, FEMUR Global / BMD % increase versus vehicle control, FEMUR Mid-shaft / BMD % increase versus vehicle control, FEMUR Neck / BMD % increase versus vehicle control, LUMBER VERTEBRAE Global / BMD % increase versus vehicle control, LUMBER VERTEBRAE L-1 / BMD % increase versus vehicle control, LUMBER VERTEBRAE L-2 / BMD % increase versus vehicle control, LUMBER VERTEBRAE L-3 / BMD % increase versus vehicle control, LUMBER VERTEBRAE L-4 / BMD % increase versus vehicle control, TIBIA Global / BMD % increase versus vehicle control, TIBIA Proximal / BMD % increase versus vehicle control, TIBIA TFSP: one month
Experimental: Immature 21 d old female SD rat model was chosen, animals were randomized into four groups and treated with a daily dose of test agent or vehicle for one month and autopsied on day 31.
[…], the animals were shifted to metabolic cage for acclaimatization for 24 h with food and water. Post acclaimatization animals were further left in metabolic cage for 24 h with water but no food. Blood and urine samples were collected after 24 h. Various biochemical parameters like serum calcium, serum phosphorus, serum osteocalcin, serum alkaline phosphatase (ALP) were evaluated. The animals were autopsied on day 31 and lumbar vertebrae, femur and tibia bones were isolated, cleaned and fixed in 70% ethanol in saline and stored at 4° C. until BMD measurement. Initial and final body weight and uterine weight at autopsy were recorded. BMD measurements of region of interest (lumbar: global, L1-L4; femur: global, neck and mid-shaft; tibia: global, proximal and tibio-fibula junction point) was performed using a bone densitometer (Model 4500 Elite, Hologic) fitted with commercially available software (QDR 4500 ACCLAIM series) for a fan-beam DXA system that permits determination of bone densitometry and measurement of body composition in small animals in vivo.

osteoblast ALP activity vs vehicle control (Calvarial osteoblasts): significant increase
melting point: 220 to 222 °C
SMILES: COc1ccccc1-c1coc2c(O)c(O)ccc2c1=O [Compound S007-1352, 7,8-Dihydroxy-3-(2-methoxy-phenyl)-chromen-4-one]
effect on adipogenesis (3T3-L1 cells; 3T3L1, both concentrations (10^−10 M and 10^−12M)): inducers of adipogenesis

osteoblast ALP activity vs vehicle control (Calvarial osteoblasts): stimulated ALP activity
osteoblast ALP activity vs vehicle control (Calvarial osteoblasts; listed as S-007-1500): showed stimulation in ALP activity
SMILES: C=CCOc1ccc2c(c1C)OCC1c3ccccc3OC21 (stereo not drawn) [Compound S007-1500, 3-Allyloxy-4-methyl-6a,11a-dihydro-6H-benzo[4,5]furo[3,2-c]chromene]
effect on adipogenesis (3T3-L1 cells; 3T3L1, at different concentrations (10^−10 M and 10^−12M tested)): significantly inhibited adipogenesis
estrogenicity (in words) [1]: devoid of any estrogenicity
BMD % increase versus vehicle control, FEMUR Global ([2]; 1 mg/kg daily): +27%
BMD % increase versus vehicle control, FEMUR Mid-shaft ([2]; 1 mg/kg daily): +35%
BMD % increase versus vehicle control, FEMUR Neck ([2]; 1 mg/kg daily): +16%
BMD % increase versus vehicle control, LUMBER VERTEBRAE Global ([2]; 1 mg/kg daily): +13%
BMD % increase versus vehicle control, LUMBER VERTEBRAE L-1 ([2]; 1 mg/kg daily): +6%
BMD % increase versus vehicle control, LUMBER VERTEBRAE L-2 ([2]; 1 mg/kg daily): +21%
BMD % increase versus vehicle control, LUMBER VERTEBRAE L-3 ([2]; 1 mg/kg daily): +5.5%
BMD % increase versus vehicle control, LUMBER VERTEBRAE L-4 ([2]; 1 mg/kg daily): −8.5%
BMD % increase versus vehicle control, TIBIA Global ([2]; 1 mg/kg daily): +35%
BMD % increase versus vehicle control, TIBIA Proximal ([2]; 1 mg/kg daily): +16.5%
BMD % increase versus vehicle control, TIBIA TFSP ([2]; 1 mg/kg daily): +70%
BMD % increase versus vehicle control, FEMUR Global ([2]; 5 mg/kg daily): +25%
BMD % increase versus vehicle control, FEMUR Mid-shaft ([2]; 5 mg/kg daily): +30%
BMD % increase versus vehicle control, FEMUR Neck ([2]; 5 mg/kg daily): +26%
BMD % increase versus vehicle control, LUMBER VERTEBRAE Global ([2]; 5 mg/kg daily): +17%
BMD % increase versus vehicle control, LUMBER VERTEBRAE L-1 ([2]; 5 mg/kg daily): +7%
BMD % increase versus vehicle control, LUMBER VERTEBRAE L-2 ([2]; 5 mg/kg daily): +14.5%
BMD % increase versus vehicle control, LUMBER VERTEBRAE L-3 ([2]; 5 mg/kg daily): +25%
BMD % increase versus vehicle control, LUMBER VERTEBRAE L-4 ([2]; 5 mg/kg daily): +14%
BMD % increase versus vehicle control, TIBIA Global ([2]; 5 mg/kg daily): +37%
BMD % increase versus vehicle control, TIBIA Proximal ([2]; 5 mg/kg daily): +33%
BMD % increase versus vehicle control, TIBIA TFSP ([2]; 5 mg/kg daily): +69%
BMD in Femur and Tibia (in words) ([2]; both doses of 1.0 and 5.0 mg/kg): significant increase
